Columns and labels:
[1] = Inhibition of FTK (unknown origin); parameters: species or system Homo sapiens
Tau-tubulin kinase 1 [2] = target: T1, Tau-tubulin kinase 1 (Homo sapiens, UniProt Q5TCY1); assay: Binding affinity to phosphorylated TTBK1 (unknown origin) assessed as association rate constant by SPR analysis
Tau-tubulin kinase 1 [3] = target: T1, Tau-tubulin kinase 1; assay: Binding affinity to phosphorylated TTBK1 (unknown origin) by SPR analysis

T1 sequence (Q5TCY1 whole entry): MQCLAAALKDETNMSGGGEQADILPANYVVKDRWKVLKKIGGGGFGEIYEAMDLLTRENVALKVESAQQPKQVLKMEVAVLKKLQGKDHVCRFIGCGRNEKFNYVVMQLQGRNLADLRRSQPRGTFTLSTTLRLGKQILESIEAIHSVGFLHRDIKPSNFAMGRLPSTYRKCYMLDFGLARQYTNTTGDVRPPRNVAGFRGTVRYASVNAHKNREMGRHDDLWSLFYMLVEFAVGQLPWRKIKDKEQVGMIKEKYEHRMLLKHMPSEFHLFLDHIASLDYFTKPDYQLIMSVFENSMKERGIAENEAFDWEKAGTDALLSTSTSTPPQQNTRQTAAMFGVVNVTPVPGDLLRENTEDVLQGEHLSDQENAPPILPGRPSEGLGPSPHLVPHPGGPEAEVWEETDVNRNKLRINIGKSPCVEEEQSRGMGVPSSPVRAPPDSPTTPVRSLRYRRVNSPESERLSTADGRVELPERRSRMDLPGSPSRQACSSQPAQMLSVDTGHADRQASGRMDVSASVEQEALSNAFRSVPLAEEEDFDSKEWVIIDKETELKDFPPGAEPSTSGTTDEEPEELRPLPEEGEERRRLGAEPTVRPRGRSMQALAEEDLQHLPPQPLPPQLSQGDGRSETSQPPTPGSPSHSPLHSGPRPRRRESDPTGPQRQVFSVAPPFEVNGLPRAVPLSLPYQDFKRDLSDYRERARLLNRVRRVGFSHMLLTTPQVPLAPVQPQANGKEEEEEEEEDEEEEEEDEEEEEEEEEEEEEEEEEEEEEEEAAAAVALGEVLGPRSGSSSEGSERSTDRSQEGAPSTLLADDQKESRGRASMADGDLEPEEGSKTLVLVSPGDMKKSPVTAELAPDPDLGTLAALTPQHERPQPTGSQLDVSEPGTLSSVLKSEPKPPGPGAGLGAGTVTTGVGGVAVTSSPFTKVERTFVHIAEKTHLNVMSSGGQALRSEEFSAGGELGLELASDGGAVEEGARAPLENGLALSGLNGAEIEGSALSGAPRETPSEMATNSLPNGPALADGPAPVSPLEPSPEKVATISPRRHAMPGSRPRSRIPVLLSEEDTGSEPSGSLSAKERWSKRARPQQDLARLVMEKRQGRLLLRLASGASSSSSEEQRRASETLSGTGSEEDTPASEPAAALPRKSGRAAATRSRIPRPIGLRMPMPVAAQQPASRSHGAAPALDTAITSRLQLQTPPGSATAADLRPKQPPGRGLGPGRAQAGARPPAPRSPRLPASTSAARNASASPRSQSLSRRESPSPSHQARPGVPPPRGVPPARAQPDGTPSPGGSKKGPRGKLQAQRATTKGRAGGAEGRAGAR

IC50 [1] [µM] | K (Tau-tubulin kinase 1 [2]) [×10⁶ /s] | Kd (Tau-tubulin kinase 1 [3]) [µM] | Compound
11 | 6.8 |  | COc1cc2ncnc(Nc3cccc(O)c3)c2cc1OC
 |  | 4.1 | COC(=O)c1cc(Nc2ncnc3[nH]ccc23)ccc1Br

From ChEMBL document CHEMBL4325845, “Tau Tubulin Kinase 1 (TTBK1), a new player in the fight against neurodegenerative diseases” (Eur J Med Chem, 2019)
